Test results from article PMC6753678, “Fueling Open Innovation for Malaria Transmission-Blocking Drugs: Hundreds of Molecules Targeting Early Parasite Mosquito Stages” (Frontiers in Microbiology, 2019).
Read-outs that look alike come from different tables or passages of the source.

Key:
[1] = system: HepG2 cells; experiment: HepG2 cytotoxicity assay; conditions: HepG2 cytotoxicity unified across the three screens
Outline: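 Cells are plated at 2,500 per well on compound-treated plates in MEM containing 10% fetal bovine serum and 1% NEAA, then incubated 48 h at 37°C.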

[2] = system: P. falciparum late stage (stages IV-V) gametocytes; parameters: method as in Almela et al 2016; conditions: TCAMS screen comparison; ref Almela et al 2016; read-out: Pf GCT ATP IC50; cited from earlier work
[3] = system: P. falciparum late stage (stages IV-V) gametocytes; experiment: P. falciparum late stage gametocyte ATP depletion assay (Pf GC-ATP); conditions: 1: YES; 0: NO
[4] = system: P. falciparum female gametocytes; experiment: P. falciparum female gametogenesis assay (Pf FGAA); conditions: 1: YES; 0: NO
[5] = system: P. falciparum female gametocytes; parameters: method as in Miguel-Blanco et al 2017; conditions: TCAMS screen comparison; ref Miguel-Blanco et al 2017; read-out: Pf FGAA IC50; cited from earlier work
[6] = system: HepG2 cells; conditions: cited from earlier work
[7] = value reported with the Pf FGAA screen, ref Miguel-Blanco et al 2017
[8] = value reported with the Pf GCT ATP screen, ref Almela et al 2016

Row | SMILES | Unified cytotox [1] [µM] | IC50 [2] [nM] | Is compound selective in assay? Pf GC-ATP active? [3] | Is compound selective in assay? Pf FGAA active? [4] | IC50 [5] [nM] | HepG2 cytoxicity [6, 7] [µM] | HepG2 cytoxicity [6, 8] [µM]
1 | CCN(CC)/C(=N/C(=N)NCc1ccc(Cl)cc1Cl)NCCCCCCN/C(=N\C(=N)NCc1ccc(Cl)cc1Cl)N(CC)CC [TCMDC-131819] | 36.73 | 300 | 1 (1: YES) | 0 (0: NO) | 4750 | 36.73 | –
2 | CCCCN(CCCC)/C(=N/C(=N)NCc1ccc(Cl)c(Cl)c1)NCCCCCCN/C(=N\C(=N)NCc1ccc(Cl)c(Cl)c1)N(CCCC)CCCC [TCMDC-131821] | 13.18 | 620 | 1 (1: YES) | 0 (0: NO) | 2510 | 13.96 | 12.4
3 | COc1cc2nc(NCCCN3CCCCC3)nc(NCc3ccccc3)c2cc1OC [TCMDC-132012] | 7.89 | 300 | 1 (1: YES) | 0 (0: NO) | 900 | 6.84 | 8.94
4 | CCc1c(CCNCCCCCCNC(C)Cc2ccc3c(c2CC)OCO3)ccc(OC)c1OC.Cl (centres unmarked) [TCMDC-132052] | 2.78 | 330 | 0 (0: NO) | 0 (0: NO) | 480 | 2.46 | 3.1
5 | CCc1c(CCNCCCCCCNC(C)(C)Cc2ccc3c(c2CC)OCO3)ccc(OC)c1OC.Cl [TCMDC-132055] | 4.32 | 270 | 1 (1: YES) | 0 (0: NO) | 1220 | 4.27 | 4.37
6 | Nc1c(Cl)cc(C(O)CNCCCCCOCCCc2ccc(O)c3ncccc23)cc1Cl.O=C(O)/C=C/C(=O)O (centres unmarked) [TCMDC-132088] | 6.14 | 450 | 1 (1: YES) | 0 (0: NO) | 2100 | 7.76 | 4.51
7 | O=C(O)C(F)(F)F.O=S(=O)(NCCN1CCCC1)c1cccc(-c2ccc(CNC3Cc4ccccc4C3)cc2)c1 [TCMDC-132241] | 7.23 | 2150 | 0 (0: NO) | 0 (0: NO) | 3100 | 6.46 | 8
8 | COc1ccc(CNC2Cc3ccccc3C2)cc1-c1ccc(S(=O)(=O)NCCN2CCCC2)cc1.O=C(O)C(F)(F)F [TCMDC-132248] | 7.08 | 1380 | 0 (0: NO) | 0 (0: NO) | 1990 | 5.89 | 8.28
9 | COc1ccc(CNC2Cc3ccccc3C2)cc1-c1ccc(OC)c(S(=O)(=O)NCCN2CCCC2)c1.O=C(O)C(F)(F)F [TCMDC-132251] | 11.89 | 1140 | 1 (1: YES) | 0 (0: NO) | 2700 | 7.17 | 16.6
10 | Cc1cccc2nc(-c3ccc(-c4ccc(CNCc5ccc(CN)cc5)cc4)s3)[nH]c12.O=C(O)C(F)(F)F [TCMDC-132809] | 19.40 | 860 | 1 (1: YES) | 1 (1: YES) | 470 | 14.79 | 24
11 | NCc1ccc(CNCc2cccc(-c3ccc(-c4nc5cc(C(F)(F)F)ccc5[nH]4)cc3)c2)cc1.O=C(O)C(F)(F)F [TCMDC-132811] | 19.47 | 860 | 1 (1: YES) | 1 (1: YES) | 830 | 14.65 | 24.3
12 | FC(F)(F)c1ccc2[nH]c(-c3ccc(-c4ccc(CNCCN5CCNCC5)cc4)s3)nc2c1.O=C(O)C(F)(F)F [TCMDC-132862] | 9.89 | 1290 | 0 (0: NO) | 0 (0: NO) | 3000 | 12.88 | 6.9
13 | FC(F)(F)c1ccc2[nH]c(-c3ccc(-c4cccc(CNCCN5CCNCC5)c4)cc3)nc2c1.O=C(O)C(F)(F)F [TCMDC-132864] | 14.90 | 1080 | 1 (1: YES) | 0 (0: NO) | 1710 | 12.31 | 17.5
14 | FC(F)(F)c1ccc2[nH]c(-c3cccc(-c4ccc(CNCCN5CCNCC5)cc4)c3)nc2c1.O=C(O)C(F)(F)F [TCMDC-132872] | 10.72 | 860 | 1 (1: YES) | 0 (0: NO) | 1790 | 8.81 | 12.62
15 | Fc1ccc2[nH]c(-c3ccc(-c4ccc(CN5CCC(CCN6CCCCC6)CC5)cc4)cc3)nc2c1.O=C(O)C(F)(F)F [TCMDC-133924] | 4.62 | 460 | 1 (1: YES) | 0 (0: NO) | 1700 | 3.94 | 5.3
16 | Fc1ccc2[nH]c(-c3cccc(-c4ccc(CN5CCC(CCN6CCCCC6)CC5)cc4)c3)nc2c1.O=C(O)C(F)(F)F [TCMDC-133940] | 4.99 | 430 | 1 (1: YES) | 0 (0: NO) | 1880 | 4.79 | 5.2
17 | FC(F)(F)c1ccc2[nH]c(-c3ccc(-c4cccc(CN5CCC(CCN6CCCCC6)CC5)c4)cc3)nc2c1.O=C(O)C(F)(F)F [TCMDC-133941] | 3.93 | 510 | 0 (0: NO) | 0 (0: NO) | 1260 | 4.45 | 3.4
18 | Cc1n[nH]c2ccc(-c3ccc4nccc(N5CCC(N)CC5)c4c3)cc12.Cl [TCMDC-134315] | 9.27 | 380 | 1 (1: YES) | 0 (0: NO) | 2450 | 6.88 | 11.66
19 | CC(C)c1ccc(CN2CCC(CNC(=O)c3cc(-c4cccc(F)c4)cs3)C2)cc1.O=C(O)C(F)(F)F (centres unmarked) [TCMDC-134437] | 5.77 | 450 | 1 (1: YES) | 0 (0: NO) | 1370 | 6.24 | 5.3
20 | CC(C)(C)c1ccc(CN2CCC(CNC(=O)c3cc(-c4ccccc4C(F)(F)F)cs3)C2)cc1.O=C(O)C(F)(F)F (centres unmarked) [TCMDC-134441] | 8.09 | 310 | 1 (1: YES) | 1 (1: YES) | 690 | 9.77 | 6.4
21 | CC(C)(C)c1ccc(CN2CCC(CNC(=O)c3cc(-c4cccc(C(F)(F)F)c4)cs3)C2)cc1.O=C(O)C(F)(F)F (centres unmarked) [TCMDC-134442] | 5.65 | 420 | 1 (1: YES) | 0 (0: NO) | 950 | 6.39 | 4.9
22 | CC(C)(C)c1ccc(CN2CCC(CNC(=O)c3cc(-c4ccccc4F)cs3)C2)cc1.O=C(O)C(F)(F)F (centres unmarked) [TCMDC-134443] | 8.35 | 340 | 1 (1: YES) | 1 (1: YES) | 830 | 9.30 | 7.4
23 | CC(C)(C)c1ccc(CN2CCC(CNC(=O)c3cc(-c4ccccc4Cl)cs3)C2)cc1.O=C(O)C(F)(F)F (centres unmarked) [TCMDC-134445] | 7.23 | 690 | 1 (1: YES) | 0 (0: NO) | 1010 | 6.17 | 8.3
24 | CC(C)(C)c1ccc(CN2CCC(CNC(=O)c3cc(-c4cccc(Cl)c4)cs3)C2)cc1.O=C(O)C(F)(F)F (centres unmarked) [TCMDC-134446] | 9.36 | 610 | 1 (1: YES) | 0 (0: NO) | 990 | 7.42 | 11.3
